Values of other authors as cited in patent US20180140592A1, “5-CHLORO-4-HYDROXY-1-METHYL-2-OXO-N-PHENYL-1,2-DIHYDROQUINOLINE-3-CARBOXAMIDE, SALTS AND USES THEREOF” (Teva Pharmaceutical Industries, Ltd., priority 2010, published 2018).

Experiments:
relapsing MS = settings: Polman et al. 2005
[1] = system: acute experimental autoimmune encephalomyelitis (aEAE) model; settings: U.S. Pat. No. 6,077,851
[2] = system: experimental inflammatory/autoimmune animal models; settings: EAE, DSS induced colitis, NOD mice, EAN, SLE and others

In the case of `CCN(C(=O)c1c(O)c2c(Cl)cccc2n(C)c1=O)c1ccccc1` [Laquinimod, N-ethyl-N-phenyl-1,2-dihydro-4-hydroxy-5-chloro-1-methyl-2-oxoquinoline-3-carboxamide], the “development of active MRI lesions” value (relapsing MS) is listed as “reduce development of active MRI lesions”, the “efficacy in the aEAE model” value [1] is listed as “effective” and the “therapeutic effect in animal models” value [2] is listed as “demonstrated therapeutic effect”.
